We go through 5 compounds from ChEMBL document CHEMBL1833860 (Bioorg Med Chem Lett, 2011).

Data set [1] in a line: Dissociation constant, pKa of the compound. The class given is physicochemical.
Data set [2] in a line: Oral bioavailability in rat at 3 mg/kg. The format is ADME, organism-based. The settings on record: in vivo.
Data set [3] is described as follows: Half life in rat at 1 mg/kg, iv and 3 mg/kg, po. The format is ADME, organism-based. The note with it: in vivo.
A short description of data set [4]: Clearance in rat at 1 mg/kg, iv and 3 mg/kg, po. The class given is ADME, organism-based. The note with it: in vivo.
A short description of data set [5]: Volume of distribution at steady state in rat at 1 mg/kg, iv and 3 mg/kg, po. The class given is ADME, organism-based. The note with it: in vivo, read-out: Vdss.
Data set [6] can be described thus: Aqueous solubility of compound in fed state simulated intestinal fluid at pH 6.5. The class given is physicochemical.
Data set [7] can be described thus: Distribution coefficient, log D of compound. The format is physicochemical. The note with it: octanol/water.

In brackets after ≈: the same amount, converted by molar mass.

`Cc1cccc(Nc2nc(N[C@@H]3CCCC[C@@H]3N)ncc2C(N)=O)c1`: the pKa in data set [1] came to 9.4.
For the compound `Cc1cccc(Nc2nc(N[C@@H]3CCOC[C@@H]3N)ncc2C(N)=O)c1`, in data set [2], the bioavailability was found to be 14%. The compound also showed a pKa in data set [1] of 8.1. In data set [3], this compound had a half-life of 1.9 h. For the same compound, in data set [4], the clearance was found to be 32 mL/min/kg. In addition, in data set [5], the Vd is 4 L/kg.
On to `Cc1ccc(Nc2nc(N[C@@H]3CCOC[C@@H]3N)ncc2C(N)=O)cc1`, for which, in data set [2], the bioavailability was found to be 30%. In addition, the half-life in data set [3] is 4.2 h. In data set [6], this compound showed a solubility of 420 µg/mL (≈ 1230 µM). Also, the logD in data set [7] came out at 0.9. The clearance in data set [4] amounted to 16 mL/min/kg. Moreover, the Vd in data set [5] was 4.1 L/kg.
In the case of `COc1ccc(Nc2nc(N[C@@H]3CCOC[C@@H]3N)ncc2C(N)=O)cc1`, the bioavailability in data set [2] worked out at 10%. The half-life in data set [3] was 2.3 h. The clearance in data set [4] was 45 mL/min/kg. Moreover, in data set [5], the Vd is 3.9 L/kg.
Compound `Cc1cccc(Nc2nc(N[C@@H]3CC(F)(F)CC[C@@H]3N)ncc2C(N)=O)c1` (racemic) came in with a pKa in data set [1] of 7.9.
